We go through seven molecules from patent US20020049223A1, “Quinoline and naphthyridine carboxylic acid antibacterials” (priority 1999, published 2002).

Holding throughout (assay): Assay B: in vitro antibacterial activity, broth microdilution MIC (NCCLS)
Holding throughout (type): cell-based

One assay relates to Escherichia coli JUHL. As to conditions: Table 2, Assay B, cation-adjusted Mueller Hinton broth, 35° C., 16 to 20 hr; code D = Escherichia coli JUHL; unit assumed. The method, then:
(§1) Assay B. Determination of Biological Activity In Vitro Assay of Antibacterial Activity
(§2) Representative compounds of the invention were assayed in vitro for antibacterial activity. The susceptibilities of aerobic, nonfastidious species were determined visually by broth microdilution as described by the National Committee for Clinical Laboratory Standards (NCCLS) (National Committee for Clinical Laboratory Standards. 1997. Methods for dilution antimicrobial susceptibility tests for bacteria that grow aerobically. Approved standard M7-A4. National Committee for Clinical Laboratory Standards. Wayne, Pa.). In brief, serial two-fold dilutions of test compounds were made in cation-adjusted Mueller Hinton broth at two-times the final concentration. Inocula were prepared from overnight cultures of test strains. Tests were inoculated with a suspension of bacteria in Mueller Hinton broth to achieve a final density of approximately 5×10^5 CFU/mL. Tests were incubated at 35° C. in ambient air for 16 to 20 hr. Minimum Inhibitory Concentrations (MICs) were determined as the lowest drug concentration completely inhibiting growth. Ciprofloxacin was included as a control. For testing S. pneumoniae, the cation-adjusted Mueller Hinton broth was supplemented with 3% lysed horse blood and the incubation period was extended to 20 to 24 hr. For testing H. influenzae, the cation-adjusted Mueller Hinton broth was supplemented with 5 g/L yeast extract, […] and 15 mg/L NAD and incubation was extended to 20 to 24 hr..

Assay [1] relates to Streptococcus pneumoniae ATCC 6303. As to conditions: Table 2, Assay B, Mueller Hinton broth with 3% lysed horse blood, 20 to 24 hr; code F = Streptococcus pneumoniae ATCC 6303; unit assumed. The procedure:
as §1, §2

In assay [2] the test system is Enterococcus faecalis PIU 1967. As to conditions: Table 2, Assay B, cation-adjusted Mueller Hinton broth, 35° C., 16 to 20 hr; code B = Enterococcus faecalis PIU 1967; unit assumed. The procedure: as §1, §2
The subject of assay [3] is Staphylococcus aureus ATCC 6538P. To be noted: Table 2, Assay B, cation-adjusted Mueller Hinton broth, 35° C., 16 to 20 hr; code A = Staphylococcus aureus ATCC 6538P; unit assumed. The procedure:
as §1, §2

Assay [4] relates to Haemophilus influenzae DILL AMP R. To be noted: Table 2, Assay B, Mueller Hinton broth with yeast extract, hematin and NAD, 20 to 24 hr; code E = Haemophilus influenzae DILL AMP R; unit assumed. The method, then:
as §1, §2

As to `COc1c(-c2cc3c(s2)CCC(=O)C3)ccc2c(=O)c(C(=O)O)cn(C3CC3)c12` [Example 53, 1-cyclopropyl-8-methoxy-4-oxo-7-(5-oxo-4,5,6,7-tetrahydro-1-benzothien-2-yl)-1,4-dihydro-3-quinolinecarboxylic acid], the Antibacterial Activity (MIC's), D in the assay with Escherichia coli JUHL was found to be 8 µg/mL. In assay [1], the Antibacterial Activity (MIC's), F turned out to be 0.5 µg/mL. The Antibacterial Activity (MIC's), B in assay [2] was 2 µg/mL. Also, the Antibacterial Activity (MIC's), A in assay [3] turned out to be 0.06 µg/mL. The same molecule returned an Antibacterial Activity (MIC's), E in assay [4] of 1 µg/mL.

In the case of `COc1c(-c2cc3c(s2)CCC(=NO)C3)ccc2c(=O)c(C(=O)O)cn(C3CC3)c12` [Example 55, 1-cyclopropyl-7-((5E/Z)-5-(hydroxyimino)-4,5,6,7-tetrahydro-1-benzothien-2-yl)-8-methoxy-4-oxo-1,4-dihydro-3-quinolinecarboxylic acid], in the assay on Escherichia coli JUHL, the Antibacterial Activity (MIC's), D stood at 0.5 µg/mL. For the same molecule, the Antibacterial Activity (MIC's), F in assay [1] was found to be 0.125 µg/mL. The Antibacterial Activity (MIC's), B in assay [2] was determined as 0.125 µg/mL. Moreover, in assay [3], the Antibacterial Activity (MIC's), A was ≤ 0.004 µg/mL. In addition, the Antibacterial Activity (MIC's), E in assay [4] was 0.06 µg/mL.

Molecule `CON=C1CCc2sc(-c3ccc4c(=O)c(C(=O)O)cn(C5CC5)c4c3OC)cc2C1` [Example 56, 1-cyclopropyl-8-methoxy-7-((5E/Z)-5-(methoxnimino)-4,5,6,7-tetrahydro-1-benzothien-2-yl)-4-oxo-1,4-dihydro-3-quinolinecarboxylic acid] registered an Antibacterial Activity (MIC's), D in the assay on Escherichia coli JUHL of 4 µg/mL. The molecule also had an Antibacterial Activity (MIC's), F in assay [1] of 0.125 µg/mL. This molecule also gave an Antibacterial Activity (MIC's), B in assay [2] of 0.5 µg/mL. This molecule had an Antibacterial Activity (MIC's), A in assay [3] of 0.03 µg/mL. For the same molecule, the Antibacterial Activity (MIC's), E in assay [4] came out at 0.25 µg/mL.

In turn, `COc1c(-c2cc3c(s2)CCC(Br)C3=O)ccc2c(=O)c(C(=O)O)cn(C3CC3)c12` (stereo not drawn) [Example 58, 7-(5-bromo-4-oxo-4,5,6,7-tetrahydro-1-benzothien-2-yl)-1-cyclopropyl-8-methoxy-4-oxo-1,4-dihydro-3-quinolinecarboxylic acid] registered an Antibacterial Activity (MIC's), D with Escherichia coli JUHL of 0.25 µg/mL. In assay [1], this molecule came in with an Antibacterial Activity (MIC's), F of 0.06 µg/mL. The molecule further came in with an Antibacterial Activity (MIC's), B in assay [2] of 0.06 µg/mL. The molecule also registered an Antibacterial Activity (MIC's), A in assay [3] of 0.004 µg/mL. In addition, the Antibacterial Activity (MIC's), E in assay [4] was 0.015 µg/mL.

Take `COc1c(-c2cc3c(s2)CC(=O)CC3)ccc2c(=O)c(C(=O)O)cn(C3CC3)c12` [Example 59, 1-cyclopropyl-8-methoxy-4-oxo-7-(6-oxo-4,5,6,7-tetrahydro-1-benzothien-2-yl)-1,4-dihydro-3-quinolinecarboxylic acid]: the Antibacterial Activity (MIC's), D with Escherichia coli JUHL came out at 8 µg/mL. The same molecule registered an Antibacterial Activity (MIC's), F in assay [1] of 0.5 µg/mL. Besides, the Antibacterial Activity (MIC's), B in assay [2] turned out to be 1 µg/mL. Also, the Antibacterial Activity (MIC's), A in assay [3] amounted to 0.03 µg/mL. The Antibacterial Activity (MIC's), E in assay [4] came to 1 µg/mL.

Take `COc1c(-c2cc3c(s2)CCCC3CN)ccc2c(=O)c(C(=O)O)cn(C3CC3)c12` (stereo not drawn) [Example 130, 7-(4-(aminomethyl)-4,5,6,7-tetrahydro-1-benzothien-2-yl)-1-cyclopropyl-8-methoxy-4-oxo-1,4-dihydro-3-quinolinecarboxylic acid]: the Antibacterial Activity (MIC's), D with Escherichia coli JUHL worked out at 0.06 µg/mL. The Antibacterial Activity (MIC's), F in assay [1] was determined as 0.125 µg/mL. In assay [2], this molecule yielded an Antibacterial Activity (MIC's), B of 0.125 µg/mL. This molecule also returned an Antibacterial Activity (MIC's), E in assay [4] of 0.015 µg/mL.

`COc1c(-c2cc3c(s2)CCCC3=NOCc2ccncc2)ccc2c(=O)c(C(=O)O)cn(C3CC3)c12` [Example 131, 1-cyclopropyl-8-methoxy-4-oxo-7-((4E/Z)-4-((4-pyridinylmethoxy)imino)-4,5,6,7-tetrahydro-1-benzothien-2-yl)-1,4-dihydro-3-quinolinecarboxylic acid]: the Antibacterial Activity (MIC's), D in the assay on Escherichia coli JUHL was found to be 1 µg/mL. The molecule further displayed an Antibacterial Activity (MIC's), F in assay [1] of 0.5 µg/mL. Besides, in assay [2], the Antibacterial Activity (MIC's), B was 0.5 µg/mL. The molecule also returned an Antibacterial Activity (MIC's), E in assay [4] of 0.125 µg/mL.
